One experiment deals with Rex-1 promoter. In words: Rex-1 luciferase reporter assay in CJ7 cells. The format is cell-based, mouse. The source says: Nat Biotechnol 20, 87-90), a small fragment containing the TCF binding sites and the cFos promoter in pTopFlash was excised by XbaI digestion, and cloned into pcDNA3-Venus in which Venus was introduced into the multiple cloning site between BamHI and EcoRI of the pcDNA3 vector (Invitrogen) whose CMV promoter was eliminated by BglII and HindIII digestion. […] To generate the Rex-1-Venus reporter construct, the Rex-1 promoter region was cloned into pcDNA3-Venus.
(§1) Luciferase assay. […] Test compounds were added 24 hrs after transfection. Following incubation for 24 hrs, cells were harvested, and analyzed by the dual luciferase reporter assay system (Promega) using Lumat (Berthold Technologies). Each value was standardized by Renilla luciferase activity.

The subject of experiment [1] is Oct-3/4 and Nanog transcripts. In words: Northern analysis of HESCs. To be noted: 7 d. The format is cell-based, human. As to the method: Northern analysis. Total RNA was isolated from cells by using Qiashredder and RNAeasy mini kit (Qiagen). The extracted RNA sample was quantified by UV spectrophotometer, and qualified by the RNA Nano Lab chip (Agilent Technologies). Ten μg of total RNA was electrophoresed on 1% agarose/formaldehyde gel and transferred onto a nylon membrane (Stratagene). Probes specific for human Oct-4 and human Nanog were prepared by RT-PCR using gene specific primer pairs (shown below) and the template cDNA generated from undifferentiated H1 cells, and radio-labeled with ^32P-dCTP by Prime-it probe labeling kit (Stratagene). The membrane was hybridized with the labeled probe using Perfecthybri (Sigma) and subjected to detection by Phosphor Imager (Amersham Biosciences).

The subject of another experiment is cyclin D1. In words: cyclin D1 immunofluorescence in HESCs. The format is cell-based, human. To be noted: HESCs (BGN2); non-CM; 6-bromoindirubin-3′-oxime 1.0 μM or Wnt3a protein 100 ng; FIG. 7. The procedure: Immunofluorescence. HESCs were grown in conditioned medium (CM), non-CM, non-CM containing Me 6-bromoindirubin-3′-oxime (1.0 μM), non-CM containing 6-bromoindirubin-3′-oxime (1.0 μM) or non-CM containing recombinant mouse Wnt3a protein (100 ng/ml, R&D systems) for 5 d. Cells were fixed in 4% paraformaldehyde for 20 min at room temperature and incubated overnight at 4° C. with primary antibodies against cyclin D1 (Santa Cruz Technology, Santa Cruz, Calif.). Antigens were localized by using goat anti-rabbit IgG conjugated to Cy3 (Zymed laboratories).

The subject of the next experiment is HESCs (H1, BGN1). In words: Feeder-free culture of HESCs, undifferentiated morphology. To be noted: feeder-free, non-conditioned medium; 7 d; 6-bromoindirubin-3′-oxime and Me analogue 2 μM, LiCl 5 mM, Wnt3a protein. It counts as cell-based, human. The procedure: (§2) Cell culture. Human embryonic stem cells (HESCs) lines were provided by WiCell Research Institute (H1 line)^5 and BresaGen Inc. (BGN1 and BGN2 lines). H1 cells were cultivated on irradiated mouse embryonic fibroblasts (MEFs) in medium consisting of 80% DMEM/F12 medium, 20% knockout serum replacement (KSR), 1 mM L-glutamine, 1% non-essential amino acids, 0.1 mM β-mercaptoethanol, and 4 ng/ml basic FGF (all from Invitrogen). […] Subsequently, HESCs were cultured on Matrigel (BD biosciences) in medium conditioned by MEFs, and passaged several times until colonies became free from contaminating MEFs as described before^9.

In experiment [2] the test system is CJ-GFP cells (MESCs). In words: Blastocyst injection of treated CJ-GFP cells, chimera generation. The format is in vivo, mouse. As to the method:
Blastocyst injection. We cultured CJ-GFP cells at a low density (500 cells/cm^2) on gelatin-coated 10 cm dishes in medium containing 6-bromoindirubin-3′-oxime 1 μM for 5 d. 6-bromoindirubin-3′-oxime-treated cells (approximately 10 to 15 cells per blastocyst) were microinjected into each blastocyst and transferred into surrogate mice in the C57Bl/6 background. Mid-gestation embryos were recovered and subjected to tissue sectioning. Chimerism of live offspring was determined by evaluation of their mixed coat color.
Immunofluorescence. Cells were fixed in 4% paraformaldehyde for 20 min at room temperature and incubated overnight at 4° C. with primary antibodies against Oct-4 (BD Biosciences), β-catenin (BD Biosciences), Tuj-1 (BAbCO), cytokeratin (Sigma), glial fibrillary acidic protein, GFAP, (Dako), smooth muscle actin (Research Diagnostics Inc), α-fetoprotein (α-FP, Cell Sciences) and Tromal (Developmental Studies Hybridoma Bank). […] For the quantitative image analysis, fluorescent images from triplicate samples were taken by the Discovery1 system (Universal Imaging Corporation). The fluorescent objects were selected by the threshold function and evaluated in five regions of each well by quantification of pixel intensities and the object size by using MetaMorph software (Universal Imaging Corporation).

Experiment [3] deals with canonical Wnt pathway (TCF binding sites, TopFlash). In words: TopFlash/FopFlash luciferase reporter assay in CJ7 cells (MESCs). The format is cell-based, mouse. To be noted: FIG. 2b. The procedure: as §1
(§3) The canonical Wnt signal occurs through binding of the Wnt protein to the Frizzled receptor at cell surface. It is followed by inactivation of GSK-3, leading to accumulation of β-catenin in the nucleus that activates the transcription of Wnt target genes in collaboration with TCFs^18,19. Alternatively, Wnt signaling can be activated by direct, intracellular inhibition of the GSK-3 function using specific inhibitors^20. […] First we examined whether mouse and human ESCs were capable of transducing Wnt signaling under the influence of 6-bromoindirubin-3′-oxime. […] We then evaluated expression of β-catenin at the cellular level as a read-out of the activation status of the canonical Wnt pathway in HESCs.

The test system is the same in experiment [4]. In words: TopFlash luciferase reporter assay in 293 cells. The format is cell-based. To be noted: 293 human kidney epithelial cells; micromolar concentrations; data not shown. The procedure:
as §1, §3

The test system of experiment [5] is CJ-GFP cells (MESCs). In words: Low-density culture of CJ-GFP MESCs without LIF, morphology. It counts as cell-based, mouse. To be noted: 1 μM; 7 d plus 5 d at low density; data not shown for Me analogue. As to the method: Teratoma formation. We grew CJ-GFP cells at a low density (500 cells/cm^2) on gelatin-coated 10 cm dishes in medium containing 6-bromoindirubin-3′-oxime 1 μM for 7 d, then passaged cells at the same density and cultured under the same condition another 5 d to further enforce differentiation of cells.

The next experiment relates to β-catenin. In words: β-catenin immunofluorescence confocal analysis in HESCs. It counts as cell-based, human. To be noted: compared to non-conditioned medium treated cells, FIG. 2c. As to the method: as §2
Immunofluorescence. […] For the quantitative image analysis, fluorescent images from triplicate samples were taken by the Discovery1 system (Universal Imaging Corporation). The fluorescent objects were selected by the threshold function and evaluated in five regions of each well by quantification of pixel intensities and the object size by using MetaMorph software (Universal Imaging Corporation).

“Also recorded” adds a separate entry of the source.

Turning to `O=C1Nc2cc(Br)ccc2/C1=C1/Nc2ccccc2/C1=N\O` [6-bromoindirubin-3′-oxime], the Rex-1 promoter activity result in the experiment with Rex-1 promoter (CJ7 cells, compared to LIF-treated cells) is recorded as “substantial upregulation”. In addition, the “Rex-1 transcriptional activation with dominant negative TCF-3 construct” value with Rex-1 promoter (cells transfected with dominant negative TCF-3) was “largely abolished”. Also, the Nanog transcript level entry in [1] was “substantial level of Nanog transcripts was preserved”. Besides, in experiment [1] (compared to conditioned medium-treated cells), the Oct-3/4 transcript level entry is “substantial level of the Oct-3/4 transcript was maintained”. In the experiment with cyclin D1, the “cyclin D1 expression” value is recorded as “upregulated; also recorded: up-regulated cyclin D1 expression”. Further, the “morphology / undifferentiated phenotype of HESCs” value in the experiment on HESCs (H1, BGN1) was “largely retained an undifferentiated morphology”. For the same molecule, the “coat-color chimerism of live offspring” value in the experiment with CJ-GFP cells (MESCs) [2] (initial assessment, new-born animals) was “two of five new-born animals were chimeric”. Moreover, the “incorporation of treated cells into embryonic tissues” value in the experiment with CJ-GFP cells (MESCs) [2] (mid-gestation stage, immunohistochemistry, FIG. 6) is given as “incorporated into several embryonic tissues”. Moreover, the TopFlash reporter activity result in [3] (CJ7 cells (MESCs)) is listed as “remarkable increase in TopFlash reporter activity in a dose-dependent manner”; in experiment [4], “robustly upregulated the reporter activity”. Moreover, the FopFlash reporter activity entry in experiment [3] (CJ7 cells, non-responsive mutated binding sites) is listed as “no substantial change in FopFlash reporter activity”. The “colony morphology of MESCs without LIF” value in the experiment on CJ-GFP cells (MESCs) [5] is on record as “still formed round tight colonies”. The “nuclear accumulation of β-catenin” value in the experiment on β-catenin was “nuclear accumulation of β-catenin”.
